Source: patent US11098044B2, “Imidazopyridinyl compounds and use thereof for treatment of neurodegenerative disorders” (1ST Biotherapeutics, Inc., priority 2019, dated 2021)
pIC50: −log10 of the molar value.

What was measured:
Format in all cases: biochemical
LRRK2 G2019S = LRRK2 G2019S (Homo sapiens (Human), UniProt Q5S007, G2019S); test: LRRK2 G2019S Kinase Assay (Adapta); conditions: 100 μM ATP, LRRKtide substrate; read-out: LRRK2_G2019S IC50
Procedure: (§1) The LRRK2 and LRRK2 G2019S kinase assays were performed using the Adapta™ technology in ThermoFisher Scientific. This experiment was carried out according to the supplier's protocol. Briefly, assay conditions were as follows. The mixture of substrate (LRRKtide) and each kinase was prepared in 50 mM Tris pH 8.5, 0.01% BRIJ-35, 10 mM MgCl2, 1 mM EGTA, 0.02% NaN3. Assays were performed in the presence of 70 μM ATP and 100 μM ATP (KmATP) in LRRK2 and LRRK2 G2019S, respectively. The reaction was progressed at room temperature for 1 hour. Upon completion of kinase reaction, 5 μL of Detection Mix was added and after 60 min incubation time, the emission ratio of 665/615 nm was calculated.

[1] = target: c-Abl (His-tagged recombinant human ABL1) (Homo sapiens (Human), UniProt P00519); test: c-abl Kinase Assay (ADP-Glo); conditions: ATP (25 μM), Abltide substrate
Chain of c-Abl (His-tagged recombinant human ABL1) (P00519 whole entry): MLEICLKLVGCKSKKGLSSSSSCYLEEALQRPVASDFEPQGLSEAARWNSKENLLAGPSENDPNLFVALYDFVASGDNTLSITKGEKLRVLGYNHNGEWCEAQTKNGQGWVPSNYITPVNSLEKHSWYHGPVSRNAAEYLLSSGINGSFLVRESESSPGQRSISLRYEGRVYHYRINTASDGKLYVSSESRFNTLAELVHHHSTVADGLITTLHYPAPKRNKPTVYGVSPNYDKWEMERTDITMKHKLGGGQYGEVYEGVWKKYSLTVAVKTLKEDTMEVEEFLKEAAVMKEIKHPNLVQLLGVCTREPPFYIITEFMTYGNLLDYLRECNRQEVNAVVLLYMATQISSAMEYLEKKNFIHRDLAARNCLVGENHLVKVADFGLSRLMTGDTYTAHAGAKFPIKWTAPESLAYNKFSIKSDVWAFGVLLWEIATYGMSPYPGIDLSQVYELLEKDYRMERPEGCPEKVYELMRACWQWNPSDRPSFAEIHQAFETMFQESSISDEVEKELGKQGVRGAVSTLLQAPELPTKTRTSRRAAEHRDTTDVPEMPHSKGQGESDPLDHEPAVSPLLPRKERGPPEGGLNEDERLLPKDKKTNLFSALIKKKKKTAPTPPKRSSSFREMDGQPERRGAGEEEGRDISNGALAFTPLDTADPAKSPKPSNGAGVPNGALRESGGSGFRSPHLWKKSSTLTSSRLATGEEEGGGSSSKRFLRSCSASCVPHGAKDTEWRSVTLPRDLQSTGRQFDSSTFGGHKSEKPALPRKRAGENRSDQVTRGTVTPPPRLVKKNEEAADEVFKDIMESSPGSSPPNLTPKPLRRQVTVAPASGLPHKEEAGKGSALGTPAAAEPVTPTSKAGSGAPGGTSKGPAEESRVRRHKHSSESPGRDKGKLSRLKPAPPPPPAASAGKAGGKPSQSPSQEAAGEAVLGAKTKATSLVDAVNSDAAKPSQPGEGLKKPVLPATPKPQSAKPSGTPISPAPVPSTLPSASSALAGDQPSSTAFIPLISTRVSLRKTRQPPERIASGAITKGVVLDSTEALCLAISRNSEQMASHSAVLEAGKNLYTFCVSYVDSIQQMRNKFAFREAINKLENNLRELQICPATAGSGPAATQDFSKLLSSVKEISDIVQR
Procedure: ADP-Glo assay kit was purchased from Promega. Magnesium chloride (MgCl2), bovine serum albumin (BSA), ethylene glycol-bis(p-aminoethyl ether)-N,N,N′,N′-tetraacetic acid (EGTA), triton X-100, 1,4-dithiothreitol (DTT) and dimethyl sulfoxide (DMSO) were purchased from Sigma-Aldrich. HEPES buffer was purchased from Gibco. ABL1 kinase and Abltide were purchased from Signalchem.
c-Abl kinase activity was measured by Promega's ADP-Glo™ Assay. In this assay, His-tagged recombinant human ABL1 (0.25 ng/μl) is incubated with 5 μL of compounds (0.5% DMSO), 5 μL of Abltide (0.01 μg/μl) and 5 μL of ATP (25 μM) in buffer (50 mM HEPES, 7.5; 10 mM MgCl2; 1 mM EGTA; 0.05% BSA; 0.01% Triton X-100; 2 mM DTT). The assay was started by incubating the reaction mixture in a 96-well plate at 30° C. for 30-min. After the incubation, 25 μL ADP-Glo reagent was added and the reaction was incubated at room temperature for 40-min to stop the reaction and degrade residual ATP. The ADP product was then converted to ATP by adding 50 μL per well of detection reagent. Luminescence was detected after 30-min room temperature incubation with the Molecular device I3X plate reader. The IC50 values were calculated from a series of percent inhibition values determined at a range of inhibitor concentration using software routines as implemented in the GraphPad Prism 7 software and Sigma Plot 13.0.

LRRK2 (WT) = LRRK2 (WT) (Homo sapiens (Human), UniProt Q5S007); test: LRRK2 Kinase Assay (Adapta); conditions: 70 μM ATP, LRRKtide substrate
Chain of LRRK2 (WT) (Q5S007 whole entry): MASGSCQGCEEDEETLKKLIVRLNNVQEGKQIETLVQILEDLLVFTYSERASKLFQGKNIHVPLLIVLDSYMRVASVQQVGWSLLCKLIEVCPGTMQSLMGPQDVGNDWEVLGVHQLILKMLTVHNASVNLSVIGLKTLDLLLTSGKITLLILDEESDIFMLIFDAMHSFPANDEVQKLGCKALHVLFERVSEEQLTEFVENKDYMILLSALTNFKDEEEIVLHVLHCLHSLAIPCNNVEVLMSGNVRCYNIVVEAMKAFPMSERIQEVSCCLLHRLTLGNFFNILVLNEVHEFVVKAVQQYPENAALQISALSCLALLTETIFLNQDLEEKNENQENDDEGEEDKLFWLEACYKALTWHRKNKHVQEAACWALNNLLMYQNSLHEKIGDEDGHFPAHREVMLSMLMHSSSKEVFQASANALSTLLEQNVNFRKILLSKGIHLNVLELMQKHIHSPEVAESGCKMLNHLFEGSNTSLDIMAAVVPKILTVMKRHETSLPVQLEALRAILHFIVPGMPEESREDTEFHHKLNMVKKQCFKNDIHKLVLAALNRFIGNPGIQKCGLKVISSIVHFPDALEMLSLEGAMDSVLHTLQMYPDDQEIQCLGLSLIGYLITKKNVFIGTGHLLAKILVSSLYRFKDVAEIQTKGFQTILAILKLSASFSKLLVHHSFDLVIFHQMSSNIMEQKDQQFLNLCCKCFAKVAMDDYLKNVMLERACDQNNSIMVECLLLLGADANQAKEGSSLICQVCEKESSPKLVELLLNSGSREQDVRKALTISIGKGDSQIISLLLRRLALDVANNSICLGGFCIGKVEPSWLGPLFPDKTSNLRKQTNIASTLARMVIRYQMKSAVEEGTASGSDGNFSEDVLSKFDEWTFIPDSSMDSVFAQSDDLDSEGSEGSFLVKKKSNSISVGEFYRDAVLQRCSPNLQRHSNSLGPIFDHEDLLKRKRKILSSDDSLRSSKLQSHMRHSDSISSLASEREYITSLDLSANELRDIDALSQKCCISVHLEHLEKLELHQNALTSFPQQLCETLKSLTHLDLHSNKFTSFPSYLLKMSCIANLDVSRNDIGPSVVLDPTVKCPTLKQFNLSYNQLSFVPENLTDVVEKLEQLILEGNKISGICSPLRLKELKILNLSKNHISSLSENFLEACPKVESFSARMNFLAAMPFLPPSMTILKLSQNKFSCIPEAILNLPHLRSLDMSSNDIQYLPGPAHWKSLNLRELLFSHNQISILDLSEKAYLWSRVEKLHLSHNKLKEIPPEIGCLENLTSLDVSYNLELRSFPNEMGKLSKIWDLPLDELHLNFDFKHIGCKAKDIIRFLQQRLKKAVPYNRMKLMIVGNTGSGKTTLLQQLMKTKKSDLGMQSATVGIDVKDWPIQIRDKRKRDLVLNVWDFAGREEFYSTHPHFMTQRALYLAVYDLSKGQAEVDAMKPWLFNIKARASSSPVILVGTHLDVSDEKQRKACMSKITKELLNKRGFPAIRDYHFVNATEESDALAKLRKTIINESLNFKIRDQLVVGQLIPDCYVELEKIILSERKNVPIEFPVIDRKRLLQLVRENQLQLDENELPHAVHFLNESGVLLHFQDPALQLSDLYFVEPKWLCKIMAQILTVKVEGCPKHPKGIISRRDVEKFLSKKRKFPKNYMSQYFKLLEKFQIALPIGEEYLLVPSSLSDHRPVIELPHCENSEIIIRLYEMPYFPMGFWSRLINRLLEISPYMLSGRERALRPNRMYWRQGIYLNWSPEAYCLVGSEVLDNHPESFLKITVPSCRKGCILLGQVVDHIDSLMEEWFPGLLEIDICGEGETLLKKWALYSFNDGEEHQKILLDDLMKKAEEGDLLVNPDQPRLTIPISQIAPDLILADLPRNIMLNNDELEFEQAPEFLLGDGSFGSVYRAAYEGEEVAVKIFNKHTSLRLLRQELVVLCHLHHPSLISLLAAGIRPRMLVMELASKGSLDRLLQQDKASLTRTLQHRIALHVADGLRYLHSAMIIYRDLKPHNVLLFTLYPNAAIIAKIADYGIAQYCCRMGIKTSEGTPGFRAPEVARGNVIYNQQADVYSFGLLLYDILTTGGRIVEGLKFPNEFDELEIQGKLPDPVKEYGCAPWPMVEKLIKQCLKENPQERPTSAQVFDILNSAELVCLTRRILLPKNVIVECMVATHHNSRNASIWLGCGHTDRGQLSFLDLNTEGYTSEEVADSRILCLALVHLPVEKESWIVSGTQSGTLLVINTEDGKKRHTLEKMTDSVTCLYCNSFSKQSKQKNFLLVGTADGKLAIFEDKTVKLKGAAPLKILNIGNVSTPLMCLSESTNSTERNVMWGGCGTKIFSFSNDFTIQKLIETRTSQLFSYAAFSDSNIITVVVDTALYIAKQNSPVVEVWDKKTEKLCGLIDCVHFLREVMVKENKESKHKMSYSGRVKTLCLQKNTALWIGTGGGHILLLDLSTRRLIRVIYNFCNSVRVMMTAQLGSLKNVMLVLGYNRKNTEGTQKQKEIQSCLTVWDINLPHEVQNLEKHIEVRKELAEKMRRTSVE
Procedure: as §1

Chain of LRRK2 G2019S (Q5S007 whole entry G2019S): as the sequence (Q5S007 whole entry) above, with G2019S counted along it

Row | pIC50 (LRRK2 G2019S) | pIC50 [1] | pIC50 (LRRK2 (WT)) | Structure (SMILES)
1 | 6.00 to 7.00 | 7.00 to 8.00 | 6.00 to 7.00 | Cc1c[nH]nc1-c1ccc2nc(NC(=O)[C@@H]3C[C@@H]3F)cn2c1 [Example 19, (1S,2S)-2-fluoro-N-(6-(4-methyl-1H-pyrazol-3-yl)imidazo[1,2-a]pyridin-2-yl)cyclopropane-1-carboxamide]
2 |  | > 8.00 |  | O=C(Nc1cn2cc(-c3cccc(F)c3O)ccc2n1)[C@@H]1C[C@@H]1F [Example 89, (1S,2S)-2-fluoro-N-(6-(3-fluoro-2-hydroxyphenyl)imidazo[1,2-a]pyridin-2-yl)cyclopropanecarboxamide]
3 | 6.00 to 7.00 | 7.00 to 8.00 | 6.00 to 7.00 | Cc1c(F)cccc1-c1ccc2nc(NC(=O)[C@@H]3C[C@@H]3F)c(C)n2c1 [Example 8, (1S,2S)-2-fluoro-N-(6-(3-fluoro-2-methylphenyl)-3-methylimidazo[1,2-a]pyridin-2-yl)cyclopropane-1-carboxamide]
4 |  | > 8.00 |  | O=C(Nc1cn2cc(-c3cnc4[nH]ccc4c3Cl)ccc2n1)[C@@H]1C[C@@H]1F [Example 87, (1S,2S)—N-(6-(4-chloro-1H-pyrrolo[2,3-b]pyridin-5-yl)imidazo[1,2-a]pyridin-2-yl)-2-fluorocyclopropanecarboxamide]
5 | 6.00 to 7.00 | 7.00 to 8.00 | < 6.00 | CC(=O)Nc1ccc(C)c(-c2ccc3nc(NC(=O)[C@@H]4C[C@@H]4F)cn3c2)c1 [Example 25, (1S,2S)—N-(6-(5-acetamido-2-methylphenyl)imidazo[1,2-a]pyridin-2-yl)-2-fluorocyclopropane-1-carboxamide]
6 | 7.00 to 8.00 | > 8.00 | 7.00 to 8.00 | Cc1c(F)cccc1-c1ccc2nc(NC(=O)C3CC3)cn2c1 [Example 70, N-(6-(3-fluoro-2-methylphenyl)imidazo[1,2-a]pyridin-2-yl)cyclopropanecarboxamide]
7 | > 8.00 | > 8.00 | > 8.00 | Cc1ccc2[nH]ccc2c1-c1ccc2nc(NC(=O)[C@@H]3C[C@@H]3F)cn2c1 [Example 15, (1S,2S)-2-fluoro-N-(6-(5-methyl-1H-indol-4-yl)imidazo[1,2-a]pyridin-2-yl)cyclopropane-1-carboxamide]
8 | 6.00 to 7.00 |  | 6.00 to 7.00 | Cc1cccc(C)c1-c1ccc2nc(NC(=O)[C@@H]3C[C@@H]3F)cn2c1 [Example 42, (1S,2S)—N-(6-(2,6-dimethylphenyl)imidazo[1,2-a]pyridin-2-yl)-2-fluorocyclopropane-1-carboxamide]
9 | 7.00 to 8.00 | > 8.00 | 7.00 to 8.00 | O=C(Nc1cn2cc(-c3cccc(F)c3Cl)ccc2n1)[C@@H]1C[C@@H]1F [Example 61, (1S,2S)—N-(6-(2-chloro-3-fluorophenyl)imidazo[1,2-a]pyridin-2-yl)-2-fluorocyclopropanecarboxamide]
10 |  | > 8.00 |  | O=C(Nc1cn2cc(-c3cccc(F)c3C3CC3)ccc2n1)[C@@H]1C[C@@H]1F [Example 97, (1S,2S)—N-(6-(2-cyclopropyl-3-fluorophenyl)imidazo[1,2-a]pyridin-2-yl)-2-fluorocyclopropanecarboxamide]
11 |  | > 8.00 |  | Cc1c(-c2ccc3nc(NC(=O)[C@@H]4C[C@@H]4F)cn3c2)cnc2[nH]ccc12 [Example 86, (1S,2S)-2-fluoro-N-(6-(4-methyl-1H-pyrrolo[2,3-b]pyridin-5-yl)imidazo[1,2-a]pyridin-2-yl)cyclopropanecarboxamide]
12 |  | 7.00 to 8.00 |  | CN(C)c1c(F)cccc1-c1ccc2nc(NC(=O)[C@@H]3C[C@@H]3F)cn2c1 [Example 93, (1S,2S)—N-(6-(2-(dimethylamino)-3-fluorophenyl)imidazo[1,2-a]pyridin-2-yl)-2-fluorocyclopropanecarboxamide]
13 |  | > 8.00 |  | Cc1cc2cc[nH]c2cc1-c1ccc2nc(NC(=O)[C@@H]3C[C@@H]3F)cn2c1 [Example 91, (1S,2S)-2-fluoro-N-(6-(5-methyl-1H-indol-6-yl)imidazo[1,2-a]pyridin-2-yl)cyclopropanecarboxamide]
14 |  | 7.00 to 8.00 |  | Cc1ccc2[nH]cnc2c1-c1ccc2nc(NC(=O)[C@@H]3C[C@@H]3F)cn2c1 [Example 100, (1S,2S)-2-fluoro-N-(6-(5-methyl-1H-benzo[d]imidazol-4-yl)imidazo[1,2-a]pyridin-2-yl)cyclopropane-1-carboxamide]
15 |  | > 8.00 |  | Cc1cc2[nH]ccc2cc1-c1ccc2nc(NC(=O)[C@@H]3C[C@@H]3F)cn2c1 [Example 92, (1S,2S)-2-fluoro-N-(6-(6-methyl-1H-indol-5-yl)imidazo[1,2-a]pyridin-2-yl)cyclopropanecarboxamide]
16 |  | > 8.00 |  | Cc1ccccc1-c1ccc2nc(NC(=O)[C@@H]3C[C@@H]3F)cn2c1 [Example 88, (1S,2S)-2-fluoro-N-(6-(o-tolyl)imidazo[1,2-a]pyridin-2-yl)cyclopropanecarboxamide]
17 |  | > 8.00 |  | Cc1cc2ncoc2cc1-c1ccc2nc(NC(=O)[C@@H]3C[C@@H]3F)cn2c1 [Example 99, (1S,2S)-2-fluoro-N-(6-(5-methylbenzo[d]oxazol-6-yl)imidazo[1,2-a]pyridin-2-yl)cyclopropanecarboxamide]
18 |  | > 8.00 |  | Cc1c(-c2ccc3nc(NC(=O)[C@@H]4C[C@@H]4F)cn3c2)ccc2ncsc12 [Example 104, (1S,2S)-2-fluoro-N-(6-(7-methylbenzo[d]thiazol-6-yl)imidazo[1,2-a]pyridin-2-yl)cyclopropanecarboxamide]
19 | 7.00 to 8.00 |  | 7.00 to 8.00 | COc1ccncc1-c1ccc2nc(NC(=O)[C@@H]3C[C@@H]3F)cn2c1 [Example 48, (1S,2S)-2-fluoro-N-(6-(4-methoxypyridin-3-yl)imidazo[1,2-a]pyridin-2-yl)cyclopropane-1-carboxamide]
20 |  | > 8.00 |  | Nc1c(F)cccc1-c1ccc2nc(NC(=O)[C@@H]3C[C@@H]3F)cn2c1 [Example 90, (1S,2S)—N-(6-(2-amino-3-fluorophenyl)imidazo[1,2-a]pyridin-2-yl)-2-fluorocyclopropanecarboxamide]
21 |  | 6.00 to 7.00 |  | CC(C)c1c(F)cccc1-c1ccc2nc(NC(=O)[C@@H]3C[C@@H]3F)cn2c1 [Example 105, (1S,2S)-2-fluoro-N-(6-(3-fluoro-2-isopropylphenyl)imidazo[1,2-a]pyridin-2-yl)cyclopropanecarboxamide]
22 |  | > 8.00 |  | Cc1cc2nc[nH]c2cc1-c1ccc2nc(NC(=O)[C@@H]3C[C@@H]3F)cn2c1 [Example 94, (1S,2S)-2-fluoro-N-(6-(5-methyl-1H-benzo[d]imidazol-6-yl)imidazo[1,2-a]pyridin-2-yl)cyclopropanecarboxamide]
23 |  | 7.00 to 8.00 |  | O=C(Nc1cn2cc(-c3ccccc3C(F)(F)F)ccc2n1)[C@@H]1C[C@@H]1F [Example 96]
24 |  | 7.00 to 8.00 |  | Cc1c(F)cccc1-c1ccc2nc(NC(=O)[C@@H]3C[C@@H]3F)c(Br)n2c1 [Example 58, (1S,2S)—N-(3-bromo-6-(3-fluoro-2-methylphenyl)imidazo[1,2-a]pyridin-2-yl)-2-fluorocyclopropane-1-carboxamide]
25 | 7.00 to 8.00 |  | 6.00 to 7.00 | Cc1c(F)cccc1-c1ccc2nc(NC(=O)C3CC3(F)F)cn2c1 (centres unmarked) [Example 77, 2,2-difluoro-N-(6-(3-fluoro-2-methylphenyl)imidazo[1,2-a]pyridin-2-yl)cyclopropanecarboxamide]
26 |  | > 8.00 |  | CCc1c(F)cccc1-c1ccc2nc(NC(=O)[C@@H]3C[C@@H]3F)cn2c1 [Example 95, (1S,2S)—N-(6-(2-ethyl-3-fluorophenyl)imidazo[1,2-a]pyridin-2-yl)-2-fluorocyclopropanecarboxamide]
27 |  | > 8.00 |  | Cc1cc2ncsc2cc1-c1ccc2nc(NC(=O)[C@@H]3C[C@@H]3F)cn2c1 [Example 103, (1S,2S)-2-fluoro-N-(6-(5-methylbenzo[d]thiazol-6-yl)imidazo[1,2-a]pyridin-2-yl)cyclopropanecarboxamide]
28 |  | > 8.00 |  | Cc1ccc2ocnc2c1-c1ccc2nc(NC(=O)[C@@H]3C[C@@H]3F)cn2c1 [Example 102, (1S,2S)-2-fluoro-N-(6-(5-methylbenzo[d]oxazol-4-yl)imidazo[1,2-a]pyridin-2-yl)cyclopropanecarboxamide]
29 |  | > 8.00 |  | CNc1c(F)cccc1-c1ccc2nc(NC(=O)[C@@H]3C[C@@H]3F)cn2c1 [Example 98, (1S,2S)-2-fluoro-N-(6-(3-fluoro-2-(methylamino)phenyl)imidazo[1,2-a]pyridin-2-yl)cyclopropanecarboxamide]
